One data set deals with RSV-mCherry virus. The conditions noted are these: read-out: EC50, inhibition of viral replication; Hep2 cells infected with RSV-mCherry, peptides added post-infection, fluorescence read at 48 h.
The next data set can be described thus: in vitro. In kind it is cell-based. The conditions noted are these: human. The method, then:
(§1) HEp-2 (ATCC number CCL-23) and BHK-21 (clone BSRT7/5) cells were maintained in Eagle's miminum essential medium (EMEM) and Dulbecco's modified Eagle's medium (DMEM), respectively, supplemented with 10% FCS, 2 mM L-glutamine, and penicillin-streptomycin solution. The cells were grown in an incubator at 37° C. in 5% CO2. Cytotoxicity assays were done with the CellTiter-Glo Luminescent cell viability assay (Promega). Cells were transfected using Lipofectamine 2000 (Invitrogen, Cergy-Pontoise, France) as described by the manufacturer.

The next data set deals with rHRSV-Luc. Description: In vivo mice luciferase assay (rHRSV-Luc-infected mice). The conditions noted are these: intranasal, 0.6 mg/ml, 50 μL in PBS, repeated at days 2 and 4; 6x10^4 PFU rHRSV-Luc.
The next data set relates to Hep2 cells. Briefly: in vitro. In kind it is cell-based. The conditions noted are these: at a concentration of 100 μM. The method, then: as §1
Data set [1] in a line: Far-UV CD spectroscopy (alpha-helical content). In kind it is physicochemical. Particulars: 10 mM phosphate buffer, pH 7.5. The method, then:
FIGS. 7A-7C: Far-UV CD spectra of stapled peptides in 10 mM phosphate buffer, pH 7.5. […] HEVS 115-129.
CD experiments were performed on a Jasco-810 or on a Chirascan spectropolarimeter in a thermostated cell holder at 20° C. The samples were prepared in 10 mM phosphate buffer, pH 7.5, at a peptide concentration of 25 μM for HEVS 73-79 or […] for the other peptides. The far-UV spectra were recorded at 25° C. by step scan from 190 nm to 250 nm with a scan rate of 100 nm per min using a bandwidth of 1 nm and an integration time of 1 s. Each spectrum was the average of 5 scans. The spectra were substracted from buffer baseline and smoothed using the FFT filter (Jasco Software, Tokyo, Japan). The data were converted to per residue molar ellipticity units [Θ] (deg.cm^2.dmol^−l.residue^−1). The percentage of helicity was calculated as follows:
[formula] whereby CD222=molar ellipticity [e] at 222 nm in [mdeg], N=number of amino acids in the peptide and C=peptide molar concentration [mol/1].

Where a SMILES comes first, the peptide text is derived from it. Bridges are numbered along the chain shown (N, C = ends). [ ]: non-standard residue; d: D form. R8 = C=CCCCCCC[C@@](C)(N)C(=O)O; R5 = C=CCCC[C@@](C)(N)C(=O)O; S5 = C=CCCC[C@](C)(N)C(=O)O

Experimental for RSV-mCherry virus: HEp-2 cells were seeded in 96 well plates and infected with 500 PFU of rHRSV-Cherry virus. Following viral infection, cells were incubated in the presence of serial dilutions of stapled peptides. The red fluorescence was read at 48 h post infection by automatic counting.
rHRSV-mCherry Inhibition Assay.
HEp-2 cells were seeded at 5×10^4 cells per well in 96 well plates the day before and infected for 2 hours with 500 PFU of RSV-mCherry. The medium was then changed against MEM without phenol red medium containing dilutions of peptides. Each point of peptide dilution was made in duplicate. Plates were incubated 48 h at 37° C. and mCherry fluorescence measurement was performed using a spectrofluorometer (Tecan infinite M200PRO) with excitation and emission wavelengths of 580 and 620 nm, respectively (expressed in relative fluorescence units RFU). Non-infected HEp-2 cells were used as standards for fluorescence background levels.
Next the potential activity of stapled peptides was tested on infected cells. Hep2 cells were infected with a RSV-mCherry virus engineered by reverse genetics (Rameix-Welti et al, Nat Comm., 2014), and increasing concentrations of stapled peptides were added post-infection to study their effect on viral replication.
Text for rHRSV-Luc: In Vivo Mice Luciferase Assay.
Female BALB/c mice were purchased from the Centre d'ElevageR. Janvier (Le Genest Saint-Isle, France) and were used around 8 weeks of age. Mice strains were bred in a pathogen-free animal facility. Mice were fed normal mouse chow and water ad libitum and were raised and housed under standard conditions with air filtration. For infection experiments, mice were housed in cages inside stainless steel isolation cabinets that were ventilated under negative pressure with high-efficiency particulate air-filtered air. Mice were anesthetized by a mixture of ketamine and xylazine (1 and 0.2 mg per mouse, respectively) and infected IN with 50 μl of PBS containing 6×10^4 PFU of rHRSV-Luc. Body temperature and body weight were monitored at days 3-10. For in vivo imaging, mice were anesthetized. Alternatively, mice were killed at different time points, and lungs were then collected. For each time point, experiments were done in quadruplicate. […] Oral treatments were administered 1 h prior to RSV inoculation and then once on day 2 and on day 4. This experiment was repeated once.

In general, EC50 refers to the concentration that produces a half-maximal response. With `CC[C@H](C)[C@H](NC(=O)[C@]1(C)CCCC=CCCCCCC[C@@](C)(NC(=O)[C@H](CC(N)=O)NC(=O)[C@H](CC(N)=O)NC(=O)[C@H](C)NC(=O)[C@H](CC(=O)O)NC(=O)[C@H](CCC(=O)O)NC(C)=O)C(=O)N[C@@H](C)C(=O)N[C@@H]([C@@H](C)O)C(=O)N[C@@H](CCCCN)C(=O)N[C@@H](Cc2ccccc2)C(=O)N[C@@H](CC(C)C)C(=O)N[C@@H](CCC(=O)O)C(=O)N1)C(=O)N[C@@H](CCCCN)C(=O)NCC(=O)N[C@@H](CCCCN)C(=O)N[C@@H](Cc1ccccc1)C(=O)N[C@@H](C)C(=O)N[C@@H](CO)C(N)=O` [HEVS 77, EDANNR8ATKFLES5IKGKFAS] (Ac-EDANN[R8]ATKFLE[S5]IKGKFAS-NH2; staple 6-13), in the data set on RSV-mCherry virus, the EC50 was 60 µM.
A word on the CC50: it is the concentration giving 50% cytotoxicity. A low value points to greater toxicity to the cells. As to `CC[C@H](C)[C@@H]1NC(=O)[C@@](C)(NC(=O)[C@H](CCC(=O)O)NC(=O)[C@H](CC(C)C)NC(=O)[C@H](Cc2ccccc2)NC(=O)[C@H](CCCCN)NC(=O)[C@@H](NC(=O)[C@H](C)NC(=O)[C@H](CCCCN)NC(=O)[C@H](CC(N)=O)NC(=O)[C@H](CC(N)=O)NC(=O)[C@H](C)NC(=O)[C@H](CC(=O)O)NC(=O)[C@H](CCC(=O)O)NC(C)=O)[C@@H](C)O)CCCC=CCCC[C@@](C)(C(=O)N[C@@H](Cc2ccccc2)C(=O)N[C@@H](C)C(=O)N[C@@H](CO)C(N)=O)NC(=O)CNC(=O)[C@H](CCCCN)NC1=O` [HEVS 78] (Ac-EDANNKATKFLE[S5]IKG[S5]FAS-NH2; staple 13-17), the EC50 in the data set with RSV-mCherry virus worked out at 15 µM. In the data set “in vitro”, this molecule showed a CC50 of approximately 40 µM.
Consider `CC[C@H](C)[C@@H]1NC(=O)[C@](C)(NC(=O)[C@H](CCC(=O)O)NC(=O)[C@H](CC(C)C)NC(=O)[C@H](Cc2ccccc2)NC(=O)[C@H](CCCCN)NC(=O)[C@@H](NC(=O)[C@H](C)NC(=O)[C@H](CCCCN)NC(=O)[C@H](CC(N)=O)NC(=O)[C@H](CC(N)=O)NC(=O)[C@H](C)NC(=O)[C@H](CC(=O)O)NC(=O)[C@H](CCC(=O)O)NC(C)=O)[C@@H](C)O)CCCCCCC=CCCC[C@@](C)(C(N)=O)NC(=O)[C@H](C)NC(=O)[C@H](Cc2ccccc2)NC(=O)[C@H](CCCCN)NC(=O)CNC(=O)[C@H](CCCCN)NC1=O` [HEVS 79] (Ac-EDANNKATKFLE[R8]IKGKFA[S5]-NH2; staple 13-20), for which the EC50 in the data set on RSV-mCherry virus is approximately 80 µM.
Turning to `CC[C@H](C)[C@H](NC(=O)[C@]1(C)CCCC=CCCCCCC[C@@](C)(NC(=O)[C@H](CC(N)=O)NC(=O)[C@H](CC(N)=O)NC(=O)[C@H](C)NC(=O)[C@H](CC(=O)O)NC(=O)[C@H](CCC(=O)O)NC(=O)CNC(=O)[C@H](Cc2c[nH]cn2)NC(=O)[C@H](Cc2ccccc2)NC(=O)[C@H](CCC(=O)O)NC(C)=O)C(=O)N[C@@H](C)C(=O)N[C@@H]([C@@H](C)O)C(=O)N[C@@H](CCCCN)C(=O)N[C@@H](Cc2ccccc2)C(=O)N[C@@H](CC(C)C)C(=O)N[C@@H](CCC(=O)O)C(=O)N1)C(=O)N[C@@H](CCCCN)C(=O)NCC(=O)N[C@@H](CCCCN)C(=O)N[C@@H](Cc1ccccc1)C(=O)N[C@@H](C)C(=O)N[C@@H](CO)C(N)=O` [HEVS 124], the EC50 with RSV-mCherry virus was 11 µM. Further, the “luciferase activity (bioluminescence) in treated mice” value in the data set on rHRSV-Luc was “significant reduction”.
Regarding `CC[C@H](C)[C@H](NC(=O)[C@]1(C)CCCC=CCCCCCC[C@@](C)(NC(=O)[C@H](CC(N)=O)NC(=O)[C@H](CC(N)=O)NC(=O)[C@H](C)NC(=O)[C@]2(C)CCCC=CCCC[C@@](C)(NC(=O)[C@H](Cc3ccccc3)NC(=O)[C@H](CCC(=O)O)NC(C)=O)C(=O)NCC(=O)N[C@@H](CCC(=O)O)C(=O)N2)C(=O)N[C@@H](C)C(=O)N[C@@H]([C@@H](C)O)C(=O)N[C@@H](CCCCN)C(=O)N[C@@H](Cc2ccccc2)C(=O)N[C@@H](CC(C)C)C(=O)N[C@@H](CCC(=O)O)C(=O)N1)C(=O)N[C@@H](CCCCN)C(=O)NCC(=O)N[C@@H](CCCCN)C(=O)N[C@@H](Cc1ccccc1)C(=O)N[C@@H](C)C(=O)N[C@@H](CO)C(N)=O` [HEVS 126, EFR5GES5ANNR8ATKFLES5IKGKFAS] (Ac-EF[R5]GE[S5]ANN[R8]ATKFLE[S5]IKGKFAS-NH2; staple 3-6, 10-17), the EC50 with RSV-mCherry virus came out at 3.5 µM. For the same molecule, in the data set with Hep2 cells, the cytotoxicity entry is listed as “cytotoxic”.
For EDANNKATKFLESIKGKFAS [HEVS 73], the “folding state by far UV CD” value in data set [1] is recorded as “largely unfolded”.

The values above are taken from US10774114B2, “Respiratory syncytial virus (RSV) replication inhibitors” (priority 2014, dated 2020).
